From patent US5912230A, “Anti-fungal and anti-bacterial histatin-based peptides” (priority 1998, dated 1999)
Where no end group is shown, it is not given here.

Legend:
[1] = system: C. albicans blastoconidia; conditions: blastoconidia, 1 h at 37° C., pH 7.4
Excerpt: C. albicans is a dimorphic yeast. It can exist in a yeast or blastoconidial form, which upon germination develops into the hyphal or germinated form. While the germinated form is considered to be more invasive, most of the C. albicans isolates harvested from the oral cavities of healthy individuals appear to be in the blastoconidial form. (Arendorf, T. M. et al. (1980), Arch. Oral Biol. 25:1-10; Gow, N.A.R. et al. (1987), Criti. Rev. Microbiol. 15:73-78; Odds, F. C. (1988), Candida and Candidosis, 2nd ed., Bailliere Tindall, London, England). Anti-fungal activity of synthetic histatin 5, histatin-based peptide 113, peptides based on portions of the amino acid sequences of histatin-based peptide 113 and peptides derived from histatin-based peptide 113 with specified amino acid substitutions was measured in assays designed to test the effectiveness of the peptides against the blastoconidia form of Candida (Table 1). These assays, which measure killing of blastoconidia of C. albicans, are described in Xu et al., which is herein incorporated by reference. (Xu, T. et al. (1991), Infect. Immun. 59(8):2549-2554).
A well-described strain of C. albicans was used in the bioassay. This strain, ATCC 44505, was originally isolated from the human oral cavity. Cultures were stored at 4° C. on Sabouraud dextrose agar plates (Difco Laboratories, Detroit, Mich.) until use. Stationary phase growth cells were obtained following growth at 30° C. for 18 h on Sabouraud dextrose agar plates. Colonies were harvested and suspended in 10 mM potassium phosphate buffer (PPB), pH 7.4.
To initiate log phase growth, an aliquot of stock C. albicans was suspended in Sabouraud dextrose broth (Difco) and incubated at 30° C. in a shaking water bath. The growth phase was determined by taking aliquots of the culture at one hour intervals to monitor the optical density (O.D.) at 560 nm. […] Log phase cells were harvested and utilized in the blastoconidia killing assay in a manner identical to that described for stationary phase cells. A final concentration of 10^5 cells/ml (either stationary or log phase fungus) was used in all assays.
The standard suspension buffer utilized in the blastospore killing assay was 0.01M PPB, pH 7.4. An alternate suspension buffer, N-2-hydroxyethylpiperazine-N'-2-ethanesulfonic acids (HEPES; Sigma Chemical Co., St. Louis, Mo.), pH 7.4, can also be utilized.
a. For the killing of blastoconidia assay, 50 μl aliquots of cells (2×10^5 cells/ml) diluted in suspension buffer were allowed to attach to a polystyrene 96-well micro-titer plate (COSTAR, Cambridge, Mass.) for 15 min at room temperature, and then incubated with an equal volume of a histatin or histatin peptide in suspension buffer for 1 h at 37° C. Controls were carried out in the absence of the histatin or histatin peptide. After incubation, wells were washed three times by centrifugation at 1,000 xg for 5 min and covered with aliquots of molten Sabouraud dextrose broth (Difco) containing 2% agarose (Sigma) at 45° C. The plate was then incubated at 30° C. for 8 h. Under such conditions, live cells will divide and begin to form colonies, while dead cells will remain as single cells. To determine the percentage of blastoconidia killed, a total of 100 single cells and/or colonies were counted under a Nikon inverted microscope at 400× magnification and the extent of killing was calculated using the formula: [1-(number of colonies in treated sample)/(number of colonies in control)]×100%.
Data were obtained by calculating the mean and standard deviation from triplicate assays.

[2] = system: Porphyromonas gingivalis strain A7A1-28; test: microdilution bacteriostatic assay (P. gingivalis growth inhibition); type: cell-based
Experimental: (a) The bacteria used in one investigation, Porphyromonas gingivalis strain A7A1-28, is a typical key pathogenic organism associated with destructive periodontal diseases. The bacteria were multiply subcultured in Enriched Todd Hewitt broth (ETHB, Difco Lab., Detroit, Mich.). Microorganisms were stored in the same broths containing 20% and 50% glycerol, at -20° C. and -70° C., respectively. These served as stock cultures from which all preparations originated.
Working stock cultures were maintained by weekly transfer to Brain Heart Infusion Anaerobic Sheep Blood Agar plates (BHIA, Becton Dickinson and Co., Cockeysville, Md.), and Trypticase Soy Anaerobic Sheep Blood Agar plates (TSA, Becton Dickinson and Co., Cockeysville, Md.). Plates were incubated for 3 to 4 days under strictly anaerobic conditions. For the bacteriostatic assay, bacteria were collected from plates, inoculated into the aforementioned broth and grown at 37° C., under strictly anaerobic conditions for 24 to 48 hours.
A modification of the typical microdilution assay (Rotilie et al., 1975) for the determination of minimal inhibitory concentration (MIC) of antimicrobial agents was utilized to investigate the bacteriostatic activity of the peptides. A standardized bacterial inoculum (P. gingivalis) was exposed to serially diluted antimicrobial peptides in an enriched broth medium that was suitable for the growth of anaerobic bacteria. The test was adapted for use in the 96-well microtiter plates. […] The modification introduced here was based on the spectrophotometric reading of the microtiter plate after incubation.
Microorganisms from cultures maintained in the aforementioned plates were inoculated into 5 ml of the above-mentioned broths and cultured overnight at 37° C. under strictly anaerobic conditions with continuous agitation on a minishaker (IKA-Labortechnik, Staufen i. Br., Germany). The bacteria were grown until reaching the late log phase and were then suspended in the same broths to an optical density (O.D.) of 0.1 at 560 nm. The peptides were diluted in 0.01M phosphate buffered saline (PBS), pH 7. Forty μl aliquots of peptide dilutions were added in each well of a U-bottom microtiter plate (Costar, Cambridge, Mass.) to give final concentrations of 2000, 1000, 500 and 250 μM. Twenty μl of bacterial inoculum was added to all the wells. Finally, 100 μl of the suitable broth were added to each well. The optical density of the wells of the microtiter plate was determined using a microplate reader set at 550 nm and the plate was then incubated under strictly anaerobic conditions for 24 hours. Controls were made by replacing the peptide dilutions with PBS alone. After the incubation, the mixtures in each well were mixed manually to resuspend sedimented bacteria and the plate was read again. The experiments were conducted twice every time. The biologic activity was calculated according to the formula:
100-[[(Fin ODexp-In ODexp)/(Fin ODctr-In ODctr)]×100]
In addition, the % increase in time to reach midlog phase growth was calculated.
The data presentation represent the means (±SEM) of at least 2 separate experiments.

[3] = system: P. gingivalis hemagglutination of erythrocytes; test: histatin peptide inhibition of hemagglutination assay; type: cell-based, Porphyromonas gingivalis; conditions: 2 hours at room temperature, visual examination
Experimental: The P. gingivalis strain of Section C.(1) was also used for the hemagglutination assays. The bacterial growth and culture conditions were also the same as those described in Section C.(1).
A classic assay was utilized to determine the hemagglutination potential of the P. gingivalis strain. Microorganisms were inoculated into BFB broth and cultured overnight, for approximately 24 hours at 37° C. under strictly anaerobic conditions with continuous agitation on a minishaker (IKA-Labortechnik, Staufen i. Br., Germany). The bacteria were harvested by centrifugatin at 3,000 r.p.m. for 20 min, at 4° C., washed twice in 0.01M phosphate buffered saline (PBS), pH 7.4, and suspended in the same buffer to an optical density of 1.0 at 550 nm. […] One ml of blood was drawn each time, washed twice in PBS at 1,000 r.p.m. for 10 min at 4° C. and suspended in the same buffer at a 2% (v/v) final concentration. Fifty μl of the bacterial suspension were serially diluted in PBS (two-fold steps) in a 96-well U-bottom microplate (Costar, Cambridge, Mass.). Fifty μl of the erythrocyte suspension were added to each well. Controls without bacteria or erythrocytes were included. The microplate was slightly shaken and incubated at room temperature for 2 hours. Visible examination on a white background was used to determine hemagglutination. The amount of hemagglutination was rated as none,(-), moderate (+/-), or strong (+). Erythrocytes in control wells with PBS precipitated to the center of the well, whereas erythrocyte-bacteria aggregates precipitated at the periphery of the bottom. The hemagglutination titer was expressed as the reciprocal of the highest dilution of the bacterial suspension providing visible hemagglutination.
Preparation of erythrocyte and bacterial suspensions were the same as for the hemagglutination assay. Fifty μl of histatin peptide solutions were diluted in PBS in a U-bottom microplate, at various two-fold concentrations with 600 nmole/ml being the highest. The bacterial concentration utilized was normally twice the minimal concentration which gave strong hemagglutination. Equal volumes of the bacterial suspension were poured into the wells containing the histatin peptides. Finally, 50 μl of erythrocyte suspension were added in each well. The microplate was slightly shaken and incubated at room temperature for 2 hours. Controls were made by replacement of the peptide dilutions with PBS only. The experiments were conducted at least twice. The lowest histatin peptide concentration without hemagglutination (complete inhibition) was determined upon visual examination. The highest final histatin peptide concentration utilized was 100 nmole/ml.

Clostripain = target: T1, Clostripain (Hathewaya histolytica, UniProt P09870); test: clostripain assay (BAPNA hydrolysis); type: biochemical, Clostridium histolyticum; conditions: read-out: Clostripain: IC50 (μM) for inhibition of Clostripain
T1 construct: purchased Sigma Chemical Corp., St. Louis, Mo
Experimental: Clostripain from Clostridium histolyticum (Sigma Chemical Corp., St. Louis, Mo.) was dissolved in deionized water to a concentration of 1 mg/mL (300 units/mg) and activated with the addition of 10 mmol/L DTT. To measure its hydrolytic activity, clostripain (6 units) was added to […] Hepes buffer, pH 7.5, containing 80 gmol/L BAPNA (benzoyl-arginine-p-nitroanilide), together with 5.6 μmol/L of histatin peptide inhibitor. As controls, assays were performed in the absence of any histatin peptide inhibitor. The activity was monitored continuously at 405 nm using a Molecular Devices VMax microtitre plate reader. The activities were determined from the maximum rates of substrate hydrolysis. Assays were done in duplicate, and the means normalized to the controls.

T1 sequence (P09870 191-526): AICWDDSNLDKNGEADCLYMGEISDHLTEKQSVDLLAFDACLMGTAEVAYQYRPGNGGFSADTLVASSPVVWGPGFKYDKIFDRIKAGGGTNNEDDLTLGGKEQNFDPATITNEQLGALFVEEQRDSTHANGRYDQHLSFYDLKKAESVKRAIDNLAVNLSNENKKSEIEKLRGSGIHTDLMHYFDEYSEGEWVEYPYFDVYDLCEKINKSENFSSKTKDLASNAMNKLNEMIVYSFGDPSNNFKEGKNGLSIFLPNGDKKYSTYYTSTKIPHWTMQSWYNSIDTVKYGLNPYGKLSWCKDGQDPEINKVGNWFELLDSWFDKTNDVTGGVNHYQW
T1 sequence (P09870 51-181): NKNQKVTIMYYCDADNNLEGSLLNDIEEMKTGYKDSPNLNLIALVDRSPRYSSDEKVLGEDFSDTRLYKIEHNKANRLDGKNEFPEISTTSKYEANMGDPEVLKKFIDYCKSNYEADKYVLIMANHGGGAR

Compound	C. albicans: LD50 (μM) for % killing [1]	P. gingivalis: % inhibition at 500 μM dose (scoring) ([2]; 500 μM dose, highest response seen used in the scoring)	Hemagglutination: lowest dose (μM) at which hemagglutination was observed using P. Gingivalis [3]	P. gingivalis: % increase in time to reach mid logphase growth (0.2 OD) ([2]; 2 mM dose)	IC50 (Clostripain)
KRHHGYKRKFHEKHH [peptide 105]	5.0 µM	+++ (+++50-80%)	6.25 µM	–	–
KRHHGYKRKFHEKHHSHR [peptide 103]	4.5 µM	–	1.56 µM	56.6%	–
KRHHGYKRKFHEKHHSHRGYR [peptide 101]	3.5 µM	–	1.56 µM	–	–
C[C@H](NC(=O)[C@H](Cc1c[nH]cn1)NC(=O)[C@H](CO)NC(=O)[C@@H](N)CC(=O)O)C(=O)N[C@@H](CCCCN)C(=O)N[C@@H](CCCNC(=N)N)C(=O)N[C@@H](Cc1c[nH]cn1)C(=O)N[C@@H](Cc1c[nH]cn1)C(=O)NCC(=O)N[C@@H](Cc1ccc(O)cc1)C(=O)N[C@@H](CCCCN)C(=O)N[C@@H](CCCNC(=N)N)C(=O)N[C@@H](CCCCN)C(=O)N[C@@H](Cc1ccccc1)C(=O)N[C@@H](Cc1c[nH]cn1)C(=O)N[C@@H](CCC(=O)O)C(=O)N[C@@H](CCCCN)C(=O)N[C@@H](Cc1c[nH]cn1)C(=O)N[C@@H](Cc1c[nH]cn1)C(=O)N[C@@H](CO)C(=O)N[C@@H](Cc1c[nH]cn1)C(=O)N[C@@H](CCCNC(=N)N)C(=O)NCC(=O)N[C@@H](Cc1ccc(O)cc1)C(=O)O [SynHis5, reference compound]	3.0 µM	–	–	–	< 6.2 µM
